ChEMBL document CHEMBL1137940, “Discovery of thiophene-2-carboxylic acids as potent inhibitors of HCV NS5B polymerase and HCV subgenomic RNA replication. Part 2: tertiary amides” (Bioorg Med Chem Lett, 2004)

Assays:
Genome polyprotein = Genome polyprotein (Hepatitis C virus genotype 1a (isolate 1) (HCV), UniProt P26664); test: In vitro inhibition of Hepatitis C polymerase.
Huh-7 [1] = test: Tested for inhibition of replication of HCV RNA subgenomic replicons in Huh-7 cells by replicon assay; assay type: functional, cell-based, Homo sapiens
Huh-7 [2] = test: Tested for cytotoxic effect to Huh-7 cells containing HCV RNA subgenomic replicons; assay type: functional; settings: Homo sapiens
Huh-7 [3] = test: Tested for inhibition of replication of HCV RNA subgenomic replicons in Huh-7 cells by real time PCR; assay type: functional, cell-based; settings: Homo sapiens

Sequence of Genome polyprotein (P26664 2421-3011 limits assumed): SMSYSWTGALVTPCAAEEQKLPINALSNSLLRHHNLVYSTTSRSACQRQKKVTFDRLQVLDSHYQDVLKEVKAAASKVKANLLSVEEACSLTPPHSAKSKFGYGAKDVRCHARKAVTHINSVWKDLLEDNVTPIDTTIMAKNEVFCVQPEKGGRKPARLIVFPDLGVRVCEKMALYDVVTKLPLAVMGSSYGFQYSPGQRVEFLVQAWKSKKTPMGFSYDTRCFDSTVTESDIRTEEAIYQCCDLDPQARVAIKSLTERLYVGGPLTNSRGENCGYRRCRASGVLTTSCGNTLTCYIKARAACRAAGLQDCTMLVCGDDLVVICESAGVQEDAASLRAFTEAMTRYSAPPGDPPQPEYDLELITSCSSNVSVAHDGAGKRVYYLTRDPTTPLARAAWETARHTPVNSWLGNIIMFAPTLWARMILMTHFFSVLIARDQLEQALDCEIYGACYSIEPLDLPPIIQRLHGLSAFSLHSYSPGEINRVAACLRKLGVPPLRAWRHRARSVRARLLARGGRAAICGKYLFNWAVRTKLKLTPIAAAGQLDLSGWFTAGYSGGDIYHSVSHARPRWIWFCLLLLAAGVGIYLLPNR

IC50 (Genome polyprotein)	IC50 (Huh-7 [1]; Homo sapiens, Huh-7)	SMILES	CC50 (Huh-7 [2])	IC50 (Huh-7 [1]; huh-7)	IC50 (Huh-7 [3])
> 50 µM	–	Cc1ccc(C(=O)N(C)c2cc(-c3ccccc3)sc2C(=O)O)cc1C	–	–	–
5 µM	35 µM	Cc1ccc(S(=O)(=O)N(C)c2cc(-c3ccccc3)sc2C(=O)O)c(C)c1	115 µM	–	–
1.4 µM	16 µM	Cc1ccc(C(=O)N(C)c2cc(-c3ccccc3)sc2C(=O)O)c(C)c1	160 µM	–	–
–	5 µM	Cc1ccc(S(=O)(=O)Nc2cc(-c3ccccc3)sc2C(=O)O)c(C)c1	57 µM	–	–
> 50 µM	> 100 µM	Cc1cccc(C(=O)N(C)c2cc(-c3ccccc3)sc2C(=O)O)c1	> 200 µM	–	–
21 µM	–	Cc1ccccc1C(=O)N(C)c1cc(-c2ccccc2)sc1C(=O)O	–	–	–
> 32 µM	–	CN(C(=O)c1ccccc1)c1cc(-c2ccccc2)sc1C(=O)O	–	–	–
3 µM	5 µM	Cc1ccc(C(=O)N(c2cc(-c3ccccc3)sc2C(=O)O)C(C)C)cc1	> 200 µM	–	–
–	> 100 µM	Cc1ccc(C(=O)Nc2cc(-c3ccccc3)sc2C(=O)O)cc1	118 µM	–	–
34 µM	> 50 µM	CN(C(=O)c1ccc(C(F)(F)F)cc1)c1cc(-c2ccccc2)sc1C(=O)O	–	–	–
9 µM	15 µM	CC(C)N(C(=O)C1CCCCC1)c1cc(-c2ccccc2)sc1C(=O)O	69 µM	–	–
2 µM	12 µM	CCN(C(=O)c1ccc(C)cc1)c1cc(-c2ccccc2)sc1C(=O)O	100 µM	–	–
1.2 µM	8.9 µM	CC(C)N(C(=O)c1ccc(Cl)cc1Cl)c1cc(-c2ccccc2)sc1C(=O)O	62 µM	–	–
> 50 µM	> 100 µM	CCc1ccc(C(=O)N(C)c2cc(-c3ccccc3)sc2C(=O)O)cc1	–	–	–
1.2 µM	19 µM	CN(C(=O)c1ccc(Cl)cc1)c1cc(-c2ccccc2)sc1C(=O)O	88 µM	–	–
2 µM	22 µM	Cc1ccc(C(=O)N(C)c2cc(-c3ccccc3)sc2C(=O)O)cc1	> 200 µM	–	–

SMILES	IC50 (Genome polyprotein)	IC50 (Huh-7 [1]; Homo sapiens, Huh-7)	CC50 (Huh-7 [2])	IC50 (Huh-7 [1]; huh-7)	IC50 (Huh-7 [3])
CC1CCC(C(=O)N(c2cc(-c3ccccc3)sc2C(=O)O)C(C)C)CC1 (stereo in doubt; 16)	1.5 µM	–	123 µM	0.6 µM	0.3 µM
CC1CCC(C(=O)N(c2cc(-c3ccccc3)sc2C(=O)O)C(C)C)CC1 (stereo in doubt; 17)	24 µM	–	–	> 50 µM	–
